# Measured values as given in patent US20230279025A1, “KRAS G12D INHIBITORS” (Mirati Therapeutics, Inc., priority 2020, published 2023).
# Structures can show the parent of a compound that is named as a salt.
# Molecular target: KRas G12D (Homo sapiens (Human), UniProt P01116, G12D)
# Experiment: KRas G12D Binding Assay (TR-FRET displacement of Cy5 labelled tracer)
# Conditions: GDP-loaded KRAS G12D (amino acids 1:169), 60 minute incubation at 22° C.
# Description: After a 60 minute incubation at 22° C., the reaction was measured using a PerkinElmer EnVision multimode plate reader via TR-FRET dual wavelength detection, and the percent of control (POC) calculated using a ratiometric emission factor. […] The POC values were fit to a 4-parameter logistic curve and the IC50 value was determined as the concentration where the curve crosses 50 POC.
# ND stands for “not determined.”
# Chain of KRas G12D (P01116 other isoform, or with tags, fused parts or gaps G12D): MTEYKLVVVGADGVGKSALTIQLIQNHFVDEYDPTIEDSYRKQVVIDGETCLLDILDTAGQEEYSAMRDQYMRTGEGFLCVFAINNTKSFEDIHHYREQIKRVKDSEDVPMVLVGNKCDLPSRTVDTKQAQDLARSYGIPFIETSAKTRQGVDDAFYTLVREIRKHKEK
row,Structure (SMILES),IC50 [nM]
1,"Cc1cc2[nH]ncc2c(-c2ncc3c(N4C[C@H]5CC[C@@H](C4)N5)nc(OCC45CCCN4CCC5)nc3c2F)c1C [Example 249, 4-((1R,5S)-3,8-diazabicyclo[3.2.1]octan-3-yl)-7-(5,6-dimethyl-1H-indazol-4-yl)-8-fluoro-2-((hexahydro-1H-pyrrolizin-7a-yl)methoxy)pyrido[4,3-d]pyrimidine]",3.5
2,"Cc1cccc2cccc(-c3ncc4c(N5C[C@H]6CC[C@@H](C5)N6)nc(OCC56CCCN5CCC6)nc4c3F)c12 [Example 334, 4-((1R,5S)-3,8-diazabicyclo[3.2.1]octan-3-yl)-8-fluoro-7-(8-methylnaphthalen-1-yl)-2-((tetrahydro-1H-pyrrolizin-7a(5H)-yl)methoxy)pyrido[4,3-d]pyrimidine]",10
3,"Fc1c(-c2cccc3c2OC(F)(F)O3)ncc2c(N3C[C@H]4CC[C@@H](C3)N4)nc(OCC34CCCN3CCC4)nc12 [Example 196, 4-((1R,5S)-3,8-diazabicyclo[3.2.1]octan-3-yl)-7-(2,2-difluorobenzo[d][1,3]dioxol-4-yl)-8-fluoro-2-((tetrahydro-1H-pyrrolizin-7a(5H)-yl)methoxy)pyrido[4,3-d]pyrimidine]",467
4,"Nc1nc2c(-c3ncc4c(N5C[C@H]6CC[C@@H](C5)N6)nc(OCC56CCCN5CCC6)nc4c3F)ccc(F)c2s1 [Example 455, 4-(4-((1R,5S)-3,8-diazabicyclo[3.2.1]octan-3-yl)-8-fluoro-2-((hexahydro-1H-pyrrolizin-7a-yl)methoxy)pyrido[4,3-d]pyrimidin-7-yl)-7-fluorobenzo[d]thiazol-2-amine]",17
5,"NC(=O)Cc1cccc2cccc(-c3ncc4c(N5C[C@H]6CC[C@@H](C5)N6)nc(OCC56CCCN5CCC6)nc4c3F)c12 [Example 240, 2-(8-(4-((1R,5S)-3,8-diazabicyclo[3.2.1]octan-3-yl)-8-fluoro-2-((tetrahydro-1H-pyrrolizin-7a(5H)-yl)methoxy)pyrido[4,3-d]pyrimidin-7-yl)naphthalen-1-yl)acetamide]",315
6,"CC(C)c1ccc(O)cc1-c1ncc2c(N3C[C@H]4CC[C@@H](C3)N4)nc(OCC34CCCN3CCC4)nc2c1F [Example 403, 3-(4-((1R,5S)-3,8-diazabicyclo[3.2.1]octan-3-yl)-8-fluoro-2-((tetrahydro-1H-pyrrolizin-7a(5H)-yl)methoxy)pyrido[4,3-d]pyrimidin-7-yl)-4-isopropylphenol]",1.9
7,"CC(C)c1cccc(C(C)C)c1-c1ncc2c(N3C[C@H]4CC[C@@H](C3)N4)nc(OCC34CCCN3CC(F)C4)nc2c1F (stereo partly drawn) [Example 394, 4-((1R,5S)-3,8-diazabicyclo[3.2.1]octan-3-yl)-7-(2,6-diisopropylphenyl)-8-fluoro-2-((2-fluorotetrahydro-1H-pyrrolizin-7a(5H)-yl)methoxy)pyrido[4,3-d]pyrimidine]",2500
8,"CO[C@H]1CN2CCC[C@]2(COc2nc(N3CC4CCC(C3)N4)c3cnc(-c4cc(O)cc5cccc(F)c45)c(F)c3n2)C1 (stereo in doubt) [Example 406, 4-(4-((1R,5S)-3,8-diazabicyclo[3.2.1]octan-3-yl)-8-fluoro-2-((2-methoxytetrahydro-1H-pyrrolizin-7a(5H)-yl)methoxy)pyrido[4,3-d]pyrimidin-7-yl)-5-fluoronaphthalen-2-ol]",0.9
9,"CCc1cccc2cccc(-c3ncc4c(N5C[C@H]6CC[C@@H](C5)N6)nc(OCC56CCCN5CCC6)nc4c3F)c12 [Example 187, 4-((1R,5S)-3,8-diazabicyclo[3.2.1]octan-3-yl)-7-(8-ethylnaphthalen-1-yl)-8-fluoro-2-((tetrahydro-1H-pyrrolizin-7a(5H)-yl)methoxy)pyrido[4,3-d]pyrimidine]",1.7
10,"COC(c1ccc(O)cc1-c1ncc2c(N3CC4CCC(C3)N4)nc(OC[C@@]34CCCN3C[C@H](F)C4)nc2c1F)C(F)(F)F (stereo in doubt) [Example 390, 3-(4-((1R,5S)-3,8-diazabicyclo[3.2.1]octan-3-yl)-8-fluoro-2-((2-fluorotetrahydro-1H-pyrrolizin-7a(5H)-yl)methoxy)pyrido[4,3-d]pyrimidin-7-yl)-4-(2,2,2-trifluoro-1-methoxyethyl)phenol]",36.8
11,"C#Cc1cccc2cncc(-c3ncc4c(N5C[C@H]6CC[C@@H](C5)N6)nc(OC[C@]56CCCN5C[C@@H](F)C6)nc4c3F)c12 [Example 204, 4-((1R,5S)-3,8-diazabicyclo[3.2.1]octan-3-yl)-7-(5-ethynylisoquinolin-4-yl)-8-fluoro-2-(((2S,7aR)-2-fluorotetrahydro-1H-pyrrolizin-7a(5H)-yl)methoxy)pyrido[4,3-d]pyrimidine]",4.4
12,"C#Cc1cccc2cc(O)cc(-c3ncc4c(N5C[C@H]6CC[C@@H](C5)N6)nc(OCC56CCCN5CCC6)nc4c3F)c12 [Example 185, 4-(4-((1R,5S)-3,8-diazabicyclo[3.2.1]octan-3-yl)-8-fluoro-2-((hexahydro-1H-pyrrolizin-7a-yl)methoxy)pyrido[4,3-d]pyrimidin-7-yl)-5-ethynylnaphthalen-2-ol]",0.3
13,"Fc1c(-c2cccc3cccc(Cl)c23)ncc2c(N3C[C@H]4CC[C@@H](C3)N4)nc(OC[C@@H]3CCCO3)nc12 [Example 136, 4-((1R,5S)-3,8-diazabicyclo[3.2.1]octan-3-yl)-7-(8-chloronaphthalen-1-yl)-8-fluoro-2-(((S)-tetrahydrofuran-2-yl)methoxy)pyrido[4,3-d]pyrimidine]",5150
14,"CCc1c(F)ccc2cc(O)cc(-c3ncc4c(N5C[C@H]6CC[C@@H](C5)N6)nc(OCC56CCCN5CCC6)nc4c3F)c12 [Example 314, 4-(4-((1R,5S)-3,8-diazabicyclo[3.2.1]octan-3-yl)-8-fluoro-2-((hexahydro-1H-pyrrolizin-7a-yl)methoxy)pyrido[4,3-d]pyrimidin-7-yl)-5-ethyl-6-fluoronaphthalen-2-ol]",0.6
15,"COc1cccc2cccc(-c3ncc4c(N5C[C@H]6CC[C@@H](C5)N6)nc(OCC56CCCN5CCC6)nc4c3F)c12 [Example 236, 4-((1R,5S)-3,8-diazabicyclo[3.2.1]octan-3-yl)-8-fluoro-2-((hexahydro-1H-pyrrolizin-7a-yl)methoxy)-7-(8-methoxynaphthalen-1-yl)pyrido[4,3-d]pyrimidine]",25
16,"CC(Oc1nc(N2C[C@H]3CC[C@@H](C2)N3)c2cnc(-c3cccc4cccc(F)c34)c(F)c2n1)C12CCCN1CCC2 (stereo partly drawn) [Example 450, 4-((1R,5S)-3,8-diazabicyclo[3.2.1]octan-3-yl)-8-fluoro-7-(8-fluoronaphthalen-1-yl)-2-(1-(hexahydro-1H-pyrrolizin-7a-yl)ethoxy)pyrido[4,3-d]pyrimidine]",37
17,"OCC12CCCN1CC(Oc1nc(N3C[C@H]4CC[C@@H](C3)N4)c3cnc(-c4cccc5cccc(Cl)c45)c(F)c3n1)C2 (stereo partly drawn) [Example 222, (2-((4-((1R,5S)-3,8-diazabicyclo[3.2.1]octan-3-yl)-7-(8-chloronaphthalen-1-yl)-8-fluoropyrido[4,3-d]pyrimidin-2-yl)oxy)tetrahydro-1H-pyrrolizin-7a(5H)-yl)methanol bis-TFA salt]",1130
18,"Cc1ccc2cccc(-c3ncc4c(N5C[C@H]6CC[C@@H](C5)N6)nc(OC[C@@H]5CCCN5C)nc4c3F)c2c1 [Example 321, 4-((1R,5S)-3,8-diazabicyclo[3.2.1]octan-3-yl)-8-fluoro-7-(7-methylnaphthalen-1-yl)-2-(((S)-1-methylpyrrolidin-2-yl)methoxy)pyrido[4,3-d]pyrimidine]",613
